This note sets out measurements from patent publication US10611740B2, “Aryl dihydro-2H-benzo[b][1,4]oxazine sulfonamide and related compounds for use as agonists of RORγ and the treatment of disease” (Lycera Corporation, priority 2015, dated 2020).

One assay addresses T1, RORγ-LBD (Homo sapiens, UniProt P51449).
T1 construct: made in house; host or cells: SF9 cells (baculovirus)
T1 sequence (P51449 269-508 limits assumed): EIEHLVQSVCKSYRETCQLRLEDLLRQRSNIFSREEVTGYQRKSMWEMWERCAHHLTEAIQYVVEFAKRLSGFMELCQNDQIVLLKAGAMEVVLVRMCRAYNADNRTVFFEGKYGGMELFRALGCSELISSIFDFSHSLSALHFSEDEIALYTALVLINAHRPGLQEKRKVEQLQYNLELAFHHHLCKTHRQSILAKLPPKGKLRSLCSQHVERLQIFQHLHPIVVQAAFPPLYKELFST
In words: RORγ-Ligand Binding Domain (LBD) TR-FRET Assay.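 On TR-FRET Assay Max Response: 665/615 nm ratio relative to signal without ursolic acid or compound set at 100.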 The format is biochemical. An outline of the steps:
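His-tagged RORγ-LBD from SF9 baculovirus lysate, ~3 nM final, in 50 mM Tris pH 7.0, 50 mM KCl, 1 mM EDTA, 0.1 mM DTT, 0.01% BSA. Biotinylated SRC1 LXXLL peptide at 200 nM final with 2 μM ursolic acid; TR-FRET read-out, 1% DMSO final.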
(In general: TR-FRET usually uses a lanthanide donor and a delayed reading to cut background.)

The next assay deals with T2, Gal4-RORγ-LBD (Homo sapiens, UniProt P51449).
T2 construct: expressed in transfected cells; host or cells: HEK-293 cells (pcDNA3.1neo plasmid)
T2 sequence (P51449 269-508 limits assumed): T1 sequence (P51449 269-508 limits assumed)
Description: Gal4-RORγ Luciferase Reporter Assay in HEK-293T Cells. The format is cell-based. The conditions noted are these: HEK-293 cells. A digest of the protocol:
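HEK-293 cells were transiently co-transfected with Gal4-RORγ-LBD and pGL4.31 Gal4-luciferase, with ursolic acid added at 2 μM final. Compounds were incubated overnight at 37° C. in 0.2% DMSO and luminescence read with One-Glo. Max Response is the upper plateau of a 4-parameter logistic fit, with signal lacking ursolic acid or compound set to 100.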

[1] abbreviates: luciferase reporter, with 2 μM ursolic acid.

`Cc1nn(C)c(C)c1-c1ccc2c(c1)N(S(=O)(=O)c1cccc(C(F)(F)F)c1)C[C@H](CCC(=O)O)O2` [Compound 4U, (S)-3-(4-((3-(trifluoromethyl)-phenyl)sulfonyl)-6-(1,3,5-trimethyl-1H-pyrazol-4-yl)-3,4-dihydro-2H-benzo[b][1,4]-oxazin-2-yl)propanoic acid]: at RORγ-LBD, the concentration giving a half-maximal response (EC50) (in general, the concentration that produces a half-maximal response) fell in the range of 500 to 5000 nM and the “TR-FRET Assay Max Response” value is listed as “* (The symbol “*” indicates a value in the range of 25 to 90)”. Also, on Gal4-RORγ-LBD (setting [1]), the EC50 lay within 500 to 5000 nM and the “Gal4-RORγ Assay Max Response” value is given as “* (The symbol “*” indicates a value in the range of 25 to 90)”.

Regarding `COc1cccc(-c2ccc3c(c2)N(S(=O)(=O)c2ccc(F)c(OC)c2)C[C@H](CNC(=O)C(C)(C)O)O3)c1` [Compound 30S, (S)-N-((4-((4-fluoro-3-methoxyphenyl)sulfonyl)-6-(3-methoxyphenyl)-3,4-dihydro-2H-benzo[b][1,4]oxazin-2-yl)methyl)-2-hydroxy-2-methylpropanamide], at RORγ-LBD, the concentration giving a half-maximal response (EC50) was less than 500 nM and the “TR-FRET Assay Max Response” value is given as “**** (The symbol “****” indicates a value greater than 200)”. Further, at Gal4-RORγ-LBD (setting [1]), the EC50 was less than 500 nM and the “Gal4-RORγ Assay Max Response” value is on record as “* (The symbol “*” indicates a value in the range of 25 to 90)”.

Consider `CC(C)(CO)C(=O)NC[C@H]1CN(S(=O)(=O)c2cccc(C(F)(F)F)c2)c2cc(-c3cc(F)cc(OC(F)F)c3)ccc2O1` [Compound 30DH, (S)-N-((6-(3-(difluoromethoxy)-5-fluorophenyl)-4-((3-(trifluoro-methyl)phenyl)sulfonyl)-3,4-dihydro-2H-benzo[b][1,4]-oxazin-2-yl)methyl)-3-hydroxy-2,2-dimethylpropanamide], for which, on RORγ-LBD, the concentration for a half-maximal effect (EC50) was less than 500 nM and the “TR-FRET Assay Max Response” value is recorded as “*** (The symbol “***” indicates a value in the range of greater than 150 to 200)”. For the same molecule, at Gal4-RORγ-LBD (2 μM ursolic acid), the EC50 was less than 500 nM and the “Gal4-RORγ Assay Max Response” value was “* (The symbol “*” indicates a value in the range of 25 to 90)”.

In the case of `CN(C)S(=O)(=O)NC[C@H]1CN(S(=O)(=O)c2cccc(C(F)(F)F)c2)c2cc(-c3cc(F)ccc3F)ccc2O1` [Compound 45A, ([[(2S)-6-(2,5-difluorophenyl)-4-[[3-(trifluoromethyl)-benzene]-sulfonyl]-3,4-dihydro-2H-1,4-benzoxazin-2-yl]methyl]sulfamoyl)-(dimethyl)amine], at RORγ-LBD, the EC50 is less than 500 nM and the “TR-FRET Assay Max Response” value is “**** (The symbol “****” indicates a value greater than 200)”. At Gal4-RORγ-LBD (setting [1]), the EC50 is less than 500 nM and the “Gal4-RORγ Assay Max Response” value is recorded as “** (The symbol “**” indicates a value in the range of greater than 90 to 150)”.

Consider `COc1cccc(-c2cc(F)c3c(c2)N(S(=O)(=O)c2cccc(C(F)(F)F)c2)C[C@H](CCC(=O)N2CCC(C(=O)O)CC2)O3)c1` [Compound 23H, (S)-1-(3-(8-fluoro-6-(3-methoxyphenyl)-4-((3-(trifluoromethyl)phenyl)sulfonyl)-3,4-dihydro-2H-benzo[b][1,4]oxazin-2-yl)propanoyl)piperidine-4-carboxylic acid], for which, at RORγ-LBD, the EC50 was less than 500 nM and the “TR-FRET Assay Max Response” value was “**** (The symbol “****” indicates a value greater than 200)”. Further, at Gal4-RORγ-LBD (setting [1]), the half-maximal effective concentration (EC50) is less than 500 nM and the “Gal4-RORγ Assay Max Response” value is listed as “** (The symbol “**” indicates a value in the range of greater than 90 to 150)”.

As for `O=C(O)CC[C@H]1CN(S(=O)(=O)c2cccc(C(F)(F)F)c2)c2cc(-c3cccc(C(F)(F)F)n3)ccc2O1` [Compound 4A, (S)-3-(4-((3-(trifluoromethyl)-phenyl)sulfonyl)-6-(6-(trifluoromethyl)pyridin-2-yl)-3,4-dihydro-2H-benzo[b][1,4]oxazin-2-yl)propanoic acid], at RORγ-LBD, the EC50 was less than 500 nM and the “TR-FRET Assay Max Response” value is “*** (The symbol “***” indicates a value in the range of greater than 150 to 200)”. On Gal4-RORγ-LBD (setting [1]), the EC50 is less than 500 nM and the “Gal4-RORγ Assay Max Response” value is reported as “*** (The symbol “***” indicates a value in the range of greater than 150 to 200)”.

On to `Cc1cccc(-c2ccc3c(c2)N(S(=O)(=O)c2cccc(C(F)(F)F)c2)C[C@H](CCC(=O)O)O3)n1` [Compound 4S, (S)-3-(6-(6-methylpyridin-2-yl)-4-((3-(trifluoromethyl)phenyl)-sulfonyl)-3,4-dihydro-2H-benzo[b][1,4]oxazin-2-yl)propanoic acid], for which, at RORγ-LBD, the EC50 was less than 500 nM and the “TR-FRET Assay Max Response” value is on record as “**** (The symbol “****” indicates a value greater than 200)”. In addition, on Gal4-RORγ-LBD (setting [1]), the EC50 was 500 to 5000 nM and the “Gal4-RORγ Assay Max Response” value was “**** (The symbol “****” indicates a value greater than 200)”.

As to `O=C(O)[C@@]1(C[C@H]2CN(S(=O)(=O)c3cccc(C(F)(F)F)c3)c3cc(-c4cc(F)cc(OC(F)F)c4)ccc3O2)CCNC1=O` [Compound 74, (R)-3-(((S)-6-(3-(difluoromethoxy)-5-fluorophenyl)-4-((3-(trifluoromethyl)phenyl)sulfonyl)-3,4-dihydro-2H-benzo[b][1,4]oxazin-2-yl)methyl)-2-oxopyrrolidine-3-carboxylic acid], on RORγ-LBD, the EC50 was less than 500 nM and the “TR-FRET Assay Max Response” value is “** (The symbol “**” indicates a value in the range of greater than 90 to 150)”. For the same molecule, on Gal4-RORγ-LBD (2 μM ursolic acid), the EC50 is less than 500 nM and the “Gal4-RORγ Assay Max Response” value is listed as “** (The symbol “**” indicates a value in the range of greater than 90 to 150)”.

With `COc1cncc(-c2ccc3c(c2)N(S(=O)(=O)c2cccc(C(F)(F)F)c2)C[C@H](CCC(=O)O)O3)c1` [Compound 2V, (S)-3-(6-(5-methoxypyridin-3-yl)-4-((3-(trifluoromethyl)-phenyl)sulfonyl)-3,4-dihydro-2H-benzo[b][1,4]oxazin-2-yl)propanoic acid], at RORγ-LBD, the EC50 was less than 500 nM and the “TR-FRET Assay Max Response” value is on record as “*** (The symbol “***” indicates a value in the range of greater than 150 to 200)”. At Gal4-RORγ-LBD (setting [1]), the EC50 was less than 500 nM and the “Gal4-RORγ Assay Max Response” value was “** (The symbol “**” indicates a value in the range of greater than 90 to 150)”.

With `CC(C)(O)C(=O)NC[C@H]1CN(S(=O)(=O)c2cncc(C(F)(F)F)c2)c2cc(-c3cc(F)ccc3F)ccc2O1` [Compound 30U, (S)-N-((6-(2,5-difluorophenyl)-4-((5-(trifluoromethyl)pyridin-3-yl)sulfonyl)-3,4-dihydro-2H-benzo[b][1,4]oxazin-2-yl)methyl)-2-hydroxy-2-methylpropanamide], at RORγ-LBD, the EC50 is less than 500 nM and the “TR-FRET Assay Max Response” value was “*** (The symbol “***” indicates a value in the range of greater than 150 to 200)”. For the same molecule, on Gal4-RORγ-LBD (setting [1]), the EC50 is less than 500 nM and the “Gal4-RORγ Assay Max Response” value is on record as “** (The symbol “**” indicates a value in the range of greater than 90 to 150)”.

Consider `CC(C)(C[C@H]1CN(S(=O)(=O)c2cccc(C(F)(F)F)c2)c2cc(-c3cccc(F)c3F)ccc2O1)C(=O)O` [Compound 32K, (S)-3-(6-(2,3-difluorophenyl)-4-((3-(trifluoromethyl)-phenyl)sulfonyl)-3,4-dihydro-2H-benzo[b][1,4]oxazin-2-yl)-2,2-dimethylpropanoic acid], for which, at RORγ-LBD, the EC50 was less than 500 nM and the “TR-FRET Assay Max Response” value is “**** (The symbol “****” indicates a value greater than 200)”. For the same molecule, at Gal4-RORγ-LBD (setting [1]), the half-maximal effective concentration (EC50) was less than 500 nM and the “Gal4-RORγ Assay Max Response” value is given as “** (The symbol “**” indicates a value in the range of greater than 90 to 150)”.

For the molecule `O=C(NC[C@H]1CN(S(=O)(=O)c2cccc(C(F)(F)F)c2)c2cc(-c3cc(F)ccc3F)ccc2O1)C1COC1` [Compound 30Z, (S)-N-((6-(2,5-difluorophenyl)-4-((3-(trifluoromethyl)phenyl)-sulfonyl)-3,4-dihydro-2H-benzo[b][1,4]oxazin-2-yl)methyl)oxetane-3-carboxamide], on RORγ-LBD, the EC50 was less than 500 nM and the “TR-FRET Assay Max Response” value is “**** (The symbol “****” indicates a value greater than 200)”. Moreover, on Gal4-RORγ-LBD (setting [1]), the EC50 is less than 500 nM and the “Gal4-RORγ Assay Max Response” value is “* (The symbol “*” indicates a value in the range of 25 to 90)”.

As to `Cc1c(F)cc(F)cc1-c1ccc2c(c1)N(S(=O)(=O)c1cccc(C(F)(F)F)c1)C[C@H](CCC(=O)O)O2` [Compound 4AJ, (S)-3-(6-(3,5-difluoro-2-methylphenyl)-4-((3-(trifluoromethyl)phenyl)-sulfonyl)-3,4-dihydro-2H-benzo[b][1,4]oxazin-2-yl)propanoic acid], at RORγ-LBD, the half-maximal effective concentration (EC50) was less than 500 nM and the “TR-FRET Assay Max Response” value is given as “**** (The symbol “****” indicates a value greater than 200)”. On Gal4-RORγ-LBD (setting [1]), the EC50 is less than 500 nM and the “Gal4-RORγ Assay Max Response” value is listed as “** (The symbol “**” indicates a value in the range of greater than 90 to 150)”.

On to `CC(=O)c1ccc(F)c(-c2ccc3c(c2)N(S(=O)(=O)c2cccc(C(F)(F)F)c2)C[C@H](CC(C)(C)C(=O)O)O3)c1` [Compound 32AE, (S)-3-(6-(5-acetyl-2-fluoro-phenyl)-4-((3-(trifluoromethyl)-phenyl)sulfonyl)-3,4-dihydro-2H-benzo[b][1,4]oxazin-2-yl)-2,2-dimethylpropanoic acid], for which, at RORγ-LBD, the EC50 is less than 500 nM and the “TR-FRET Assay Max Response” value was “*** (The symbol “***” indicates a value in the range of greater than 150 to 200)”. On Gal4-RORγ-LBD (2 μM ursolic acid), the EC50 is less than 500 nM and the “Gal4-RORγ Assay Max Response” value was “* (The symbol “*” indicates a value in the range of 25 to 90)”.
